Measurements published in US7763663B2, “Polysaccharide-containing block copolymer particles and uses thereof” (priority 2001, dated 2010).

System: ear swelling
Conditions: conventional form, 200 mg dose (highest dosage used), topical, after 6 hours of exposure, croton oil
Excerpt: Croton oil was applied to the left and right ears of five animals to cause inflammation. Two hours later, a nanoparticle preparation of Celebrex or conventional form of Celebrex® was applied topically to the left or right ear.

## Cc1ccc(-c2cc(C(F)(F)F)nn2-c2ccc(S(N)(=O)=O)cc2)cc1 [Celebrex® delivered in conventional form]
  reduction in ear swelling: 60%
